{"source": "patent US20190002427A1", "about": "“STEREOISOMER OF FLOCOUMAFEN, COMPOSITION AND RODENTICIDE BAIT COMPRISING SAME, AND METHOD FOR CONTROLLING TARGET RODENT PESTS” (priority 2015, published 2019)", "key": {"[1]": {"assay_type": "in vivo, Sprague-Dawley rats", "conditions": "relative to the other configurational stereoisomers; in words", "protocol": "About 0.525 g (±0.025 g) of rat liver is weighed out accurately and placed in a 50 mL polypropylene tube. 10 mL of acetone are added and the suspension is homogenized using an Ultra-Turrax® homogenizer/disperser for a time of about 30 seconds. The homogenizer/disperser shaft is rinsed with hot water and then twice with 20 mL of acetone in a polypropylene tube. The homogenate is centrifuged for 5 minutes at a centrifugation speed of 3000 rpm (revolutions per minute). The supernatant is collected and transferred into a test tube. The sample is subjected to evaporation under a stream of nitrogen (N2) at a temperature of 40° C. so as to form a dry extract.\n1 mL of acetonitrile is added to the tube containing the dry extract so as to dissolve it. […]\nThe configurational stereoisomers of flocoumafen are separated by high-pressure liquid chromatography using a LUX® Cellulose-4 chiral column (00F-4490-B0, Phenomenex, Le Pecq, France) as stationary phase and a mixture formed from acetonitrile (A) and water comprising 0.1% by volume of formic acid (B), with an A/B volume ratio of 92/8, as mobile phase with a flow rate of the liquid mobile phase in the chromatography column of 0.25 mL/minute. […] In particular, the MRM (“Multiple Reaction Monitoring”) transitions m/z 541.1→382.1 and m/z 541.1→161, corresponding to the flocoumafen signal, are detected. […]"}, "target rodent pests": {"system": "target rodent pests", "assay": "Rodenticidal efficacy", "assay_type": "in vivo", "conditions": "relative to the other configurational stereoisomers; in words, no data shown"}}, "data": [{"smiles": "O=c1oc2ccccc2c(O)c1C1CC(c2ccc(OCc3ccc(C(F)(F)F)cc3)cc2)Cc2ccccc21", "note": "(single isomer, unassigned) [Enantiomer E4, flocoumafen]", "values": [{"measurement": "Persistence in the liver", "setting": "[1]", "result": "more persistent in the liver of the target rodent pests"}, {"measurement": "Rodenticidal efficacy", "setting": "target rodent pests", "result": "increased rodenticidal efficacy relative to the other configurational stereoisomers"}]}]}
